# Laboratory results as given in the supplement of paper PMC10307832.
# Columns and labels:
# Experiment in all cases: relative viability (nuclei count vs DMSO), 5 days (fraction); higher = more cells survive
# SK-LU-1 = tested on: SK-LU-1
# In short: (§1)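 Cells from lung cancer lines were seeded into 1536-well plates and, one day later, dosed by pin tool. Treatments were either a single drug or a fixed dose of an anchor drug with five library-drug doses (not always all listed) in √10 steps. After 5 days, nuclei were stained in a one-step fixation (final 0.05% Triton X-100, 1% formaldehyde, 1 ug/ml Hoechst) and counted on 4× images, and relative viability is the treated-to-vehicle nuclei ratio, as the median of duplicate plates.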
# NCI-H1734 = tested on: NCI-H1734
# In short: as §1
# ABC-1 = tested on: ABC-1
# In short: as §1
# NCI-H1651 = tested on: NCI-H1651
# In short: as §1
# RERF-LC-KJ = tested on: RERF-LC-KJ
# In short: as §1
# EMC-BAC-2 = tested on: EMC-BAC-2
# In short: as §1
# NCI-H1755 = tested on: NCI-H1755
# In short: as §1
# HCC-366 = tested on: HCC-366
# In short: as §1
# NCI-H727 = tested on: NCI-H727
# In short: as §1
# NCI-H2347 = tested on: NCI-H2347
# In short: as §1
# NCI-H1650 = tested on: NCI-H1650
# In short: as §1
# PC-3 [JPC-3] = tested on: PC-3 [JPC-3]
# In short: as §1
# NCI-H441 = tested on: NCI-H441
# In short: as §1
# NCI-H1437 = tested on: NCI-H1437
# In short: as §1
# CAL-12T = tested on: CAL-12T
# In short: as §1
# NCI-H3122 = tested on: NCI-H3122
# In short: as §1
# COR-L23 = tested on: COR-L23
# In short: as §1
# UMC-11 = tested on: UMC-11
# In short: as §1
# HARA = tested on: HARA
# In short: as §1
# NCI-H596 = tested on: NCI-H596
# In short: as §1
# HOP-62 = tested on: HOP-62
# In short: as §1
# NCI-H1563 = tested on: NCI-H1563
# In short: as §1
structure (smiles),measurement,setting,value
Nc1cccc2c1CN(C1CCC(=O)NC1=O)C2=O (stereo unspecified) [Lenalidomide] + CC(C)C[C@H](NC(=O)[C@H](Cc1ccccc1)NC(=O)c1cnccn1)B(O)O [Bortezomib] (partner 0.002 µM),relative viability,SK-LU-1; first compound 0.253 µM,1.31
same,relative viability,SK-LU-1; first compound 0.8 µM,1.38
same,relative viability,SK-LU-1; first compound 2.53 µM,1.25
same,relative viability,SK-LU-1; first compound 8 µM,0.862
same,relative viability,NCI-H1734; first compound 0.253 µM,0.896
same,relative viability,NCI-H1734; first compound 0.8 µM,0.907
same,relative viability,NCI-H1734; first compound 2.53 µM,1.02
same,relative viability,NCI-H1734; first compound 8 µM,0.807
same,relative viability,ABC-1; first compound 0.253 µM,0.302
same,relative viability,ABC-1; first compound 0.8 µM,0.297
same,relative viability,ABC-1; first compound 2.53 µM,0.278
same,relative viability,ABC-1; first compound 8 µM,0.285
same,relative viability,NCI-H1651; first compound 0.253 µM,0.923
same,relative viability,NCI-H1651; first compound 0.8 µM,0.728
same,relative viability,NCI-H1651; first compound 2.53 µM,1.05
same,relative viability,NCI-H1651; first compound 8 µM,0.772
same,relative viability,RERF-LC-KJ; first compound 0.253 µM,1.13
same,relative viability,RERF-LC-KJ; first compound 0.8 µM,0.934
same,relative viability,RERF-LC-KJ; first compound 2.53 µM,1.09
same,relative viability,RERF-LC-KJ; first compound 8 µM,0.974
same,relative viability,EMC-BAC-2; first compound 0.253 µM,1.04
same,relative viability,EMC-BAC-2; first compound 0.8 µM,0.857
same,relative viability,EMC-BAC-2; first compound 2.53 µM,1.15
same,relative viability,EMC-BAC-2; first compound 8 µM,0.913
same,relative viability,NCI-H1755; first compound 0.253 µM,0.855
same,relative viability,NCI-H1755; first compound 0.8 µM,0.854
same,relative viability,NCI-H1755; first compound 2.53 µM,0.947
same,relative viability,NCI-H1755; first compound 8 µM,0.913
same,relative viability,HCC-366; first compound 0.253 µM,0.985
same,relative viability,HCC-366; first compound 0.8 µM,1.03
same,relative viability,HCC-366; first compound 2.53 µM,1.08
same,relative viability,HCC-366; first compound 8 µM,1.05
same,relative viability,NCI-H727; first compound 0.253 µM,0.81
same,relative viability,NCI-H727; first compound 2.53 µM,1.05
same,relative viability,NCI-H727; first compound 8 µM,0.791
same,relative viability,NCI-H2347; first compound 0.253 µM,1.1
same,relative viability,NCI-H2347; first compound 0.8 µM,0.904
same,relative viability,NCI-H2347; first compound 2.53 µM,0.979
same,relative viability,NCI-H2347; first compound 8 µM,0.435
same,relative viability,NCI-H1650; first compound 0.253 µM,0.197
same,relative viability,NCI-H1650; first compound 0.8 µM,0.189
same,relative viability,NCI-H1650; first compound 2.53 µM,0.213
same,relative viability,NCI-H1650; first compound 8 µM,0.198
same,relative viability,PC-3 [JPC-3]; first compound 0.253 µM,0.872
same,relative viability,PC-3 [JPC-3]; first compound 0.8 µM,0.535
same,relative viability,PC-3 [JPC-3]; first compound 2.53 µM,0.906
same,relative viability,PC-3 [JPC-3]; first compound 8 µM,0.99
same,relative viability,NCI-H441; first compound 0.253 µM,0.347
same,relative viability,NCI-H441; first compound 0.8 µM,0.383
same,relative viability,NCI-H441; first compound 2.53 µM,0.529
same,relative viability,NCI-H441; first compound 8 µM,0.485
same,relative viability,NCI-H1437; first compound 0.253 µM,0.523
same,relative viability,NCI-H1437; first compound 0.8 µM,0.571
same,relative viability,NCI-H1437; first compound 2.53 µM,0.95
same,relative viability,NCI-H1437; first compound 8 µM,0.501
same,relative viability,CAL-12T; first compound 0.253 µM,0.988
same,relative viability,CAL-12T; first compound 2.53 µM,1.14
same,relative viability,CAL-12T; first compound 8 µM,0.965
same,relative viability,NCI-H3122; first compound 0.253 µM,1.04
same,relative viability,NCI-H3122; first compound 0.8 µM,1.05
same,relative viability,NCI-H3122; first compound 2.53 µM,0.98
same,relative viability,NCI-H3122; first compound 8 µM,1.13
same,relative viability,COR-L23; first compound 0.253 µM,0.994
same,relative viability,COR-L23; first compound 0.8 µM,1.11
same,relative viability,COR-L23; first compound 2.53 µM,1.07
same,relative viability,COR-L23; first compound 8 µM,1.17
same,relative viability,UMC-11; first compound 0.253 µM,0.526
same,relative viability,UMC-11; first compound 0.8 µM,0.332
same,relative viability,UMC-11; first compound 2.53 µM,0.856
same,relative viability,UMC-11; first compound 8 µM,0.635
same,relative viability,HARA; first compound 0.253 µM,1.07
same,relative viability,HARA; first compound 0.8 µM,0.657
same,relative viability,HARA; first compound 2.53 µM,1.24
same,relative viability,HARA; first compound 8 µM,1.19
same,relative viability,NCI-H596; first compound 0.253 µM,0.933
same,relative viability,NCI-H596; first compound 0.8 µM,0.733
same,relative viability,NCI-H596; first compound 2.53 µM,1.39
same,relative viability,NCI-H596; first compound 8 µM,0.883
same,relative viability,HOP-62; first compound 0.253 µM,0.701
same,relative viability,HOP-62; first compound 0.8 µM,0.417
same,relative viability,HOP-62; first compound 2.53 µM,1.06
same,relative viability,HOP-62; first compound 8 µM,0.722
same,relative viability,NCI-H1563; first compound 0.253 µM,0.807
same,relative viability,NCI-H1563; first compound 0.8 µM,0.846
same,relative viability,NCI-H1563; first compound 2.53 µM,0.887
same,relative viability,NCI-H1563; first compound 8 µM,0.748
